A short description of test [1]: Inhibitory activity against aminopeptidase.
Test [2] concerns the target T1, Angiotensin-converting enzyme (Oryctolagus cuniculus, UniProt P12822).
T1 sequence (P12822 whole entry): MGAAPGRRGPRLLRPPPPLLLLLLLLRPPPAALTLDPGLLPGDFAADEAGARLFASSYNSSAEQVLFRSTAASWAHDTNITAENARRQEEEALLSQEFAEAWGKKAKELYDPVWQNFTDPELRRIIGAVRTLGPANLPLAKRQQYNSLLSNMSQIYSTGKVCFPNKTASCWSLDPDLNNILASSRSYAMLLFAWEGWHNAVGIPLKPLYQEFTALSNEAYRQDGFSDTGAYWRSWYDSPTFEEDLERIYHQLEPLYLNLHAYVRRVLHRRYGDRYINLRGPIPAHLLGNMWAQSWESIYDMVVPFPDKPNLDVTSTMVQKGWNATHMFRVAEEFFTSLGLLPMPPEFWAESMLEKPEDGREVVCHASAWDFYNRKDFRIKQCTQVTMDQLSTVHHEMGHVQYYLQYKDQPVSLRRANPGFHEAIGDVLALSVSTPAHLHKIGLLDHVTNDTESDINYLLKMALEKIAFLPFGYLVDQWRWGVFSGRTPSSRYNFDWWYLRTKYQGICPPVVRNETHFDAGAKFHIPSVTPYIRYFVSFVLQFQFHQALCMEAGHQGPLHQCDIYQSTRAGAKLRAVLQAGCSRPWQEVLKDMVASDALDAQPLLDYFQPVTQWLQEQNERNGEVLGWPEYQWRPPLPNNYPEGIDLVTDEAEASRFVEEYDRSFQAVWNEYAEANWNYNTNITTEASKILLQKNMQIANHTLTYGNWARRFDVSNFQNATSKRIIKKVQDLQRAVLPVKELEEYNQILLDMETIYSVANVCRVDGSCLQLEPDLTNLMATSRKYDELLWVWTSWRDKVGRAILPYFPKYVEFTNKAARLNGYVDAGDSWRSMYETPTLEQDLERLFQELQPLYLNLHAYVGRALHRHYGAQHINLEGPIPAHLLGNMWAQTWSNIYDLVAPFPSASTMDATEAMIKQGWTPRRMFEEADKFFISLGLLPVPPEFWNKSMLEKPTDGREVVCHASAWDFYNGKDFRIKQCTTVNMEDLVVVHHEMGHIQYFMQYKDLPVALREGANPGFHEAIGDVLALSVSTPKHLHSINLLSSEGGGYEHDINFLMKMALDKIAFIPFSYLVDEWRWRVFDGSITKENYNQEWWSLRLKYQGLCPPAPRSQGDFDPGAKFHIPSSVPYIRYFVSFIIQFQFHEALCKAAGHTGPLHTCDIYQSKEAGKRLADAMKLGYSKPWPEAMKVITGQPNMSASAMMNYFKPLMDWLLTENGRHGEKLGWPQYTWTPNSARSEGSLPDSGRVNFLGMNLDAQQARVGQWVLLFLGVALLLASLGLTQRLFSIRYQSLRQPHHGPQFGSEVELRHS
In words: Inhibitory activity against rabbit lung angiotensin-converting enzyme(ACE).

Test [3] concerns the target T2, Leukotriene A-4 hydrolase (Homo sapiens, UniProt P09960).
T2 sequence (P09960 whole entry): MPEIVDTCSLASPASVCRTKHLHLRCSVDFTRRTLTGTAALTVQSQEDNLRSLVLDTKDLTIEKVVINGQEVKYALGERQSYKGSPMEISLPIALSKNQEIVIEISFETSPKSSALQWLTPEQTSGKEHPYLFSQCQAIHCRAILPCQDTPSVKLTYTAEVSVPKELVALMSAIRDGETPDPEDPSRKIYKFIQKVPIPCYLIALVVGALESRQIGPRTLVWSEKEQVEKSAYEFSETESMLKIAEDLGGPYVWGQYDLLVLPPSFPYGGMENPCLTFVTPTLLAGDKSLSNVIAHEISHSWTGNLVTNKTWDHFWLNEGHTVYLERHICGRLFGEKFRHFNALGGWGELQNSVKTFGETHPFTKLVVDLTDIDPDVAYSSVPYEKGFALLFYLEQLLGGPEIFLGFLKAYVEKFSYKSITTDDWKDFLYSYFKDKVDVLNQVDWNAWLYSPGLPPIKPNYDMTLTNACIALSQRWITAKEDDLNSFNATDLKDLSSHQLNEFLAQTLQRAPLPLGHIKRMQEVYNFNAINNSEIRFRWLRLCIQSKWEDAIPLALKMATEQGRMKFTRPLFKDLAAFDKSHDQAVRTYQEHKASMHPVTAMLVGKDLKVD
As to the kind of experiment: Inhibitory activity against recombinant human Leukotriene A4 hydrolase.

A further test concerns the target T3, Neprilysin (Oryctolagus cuniculus, UniProt P08049).
T3 sequence (P08049 whole entry): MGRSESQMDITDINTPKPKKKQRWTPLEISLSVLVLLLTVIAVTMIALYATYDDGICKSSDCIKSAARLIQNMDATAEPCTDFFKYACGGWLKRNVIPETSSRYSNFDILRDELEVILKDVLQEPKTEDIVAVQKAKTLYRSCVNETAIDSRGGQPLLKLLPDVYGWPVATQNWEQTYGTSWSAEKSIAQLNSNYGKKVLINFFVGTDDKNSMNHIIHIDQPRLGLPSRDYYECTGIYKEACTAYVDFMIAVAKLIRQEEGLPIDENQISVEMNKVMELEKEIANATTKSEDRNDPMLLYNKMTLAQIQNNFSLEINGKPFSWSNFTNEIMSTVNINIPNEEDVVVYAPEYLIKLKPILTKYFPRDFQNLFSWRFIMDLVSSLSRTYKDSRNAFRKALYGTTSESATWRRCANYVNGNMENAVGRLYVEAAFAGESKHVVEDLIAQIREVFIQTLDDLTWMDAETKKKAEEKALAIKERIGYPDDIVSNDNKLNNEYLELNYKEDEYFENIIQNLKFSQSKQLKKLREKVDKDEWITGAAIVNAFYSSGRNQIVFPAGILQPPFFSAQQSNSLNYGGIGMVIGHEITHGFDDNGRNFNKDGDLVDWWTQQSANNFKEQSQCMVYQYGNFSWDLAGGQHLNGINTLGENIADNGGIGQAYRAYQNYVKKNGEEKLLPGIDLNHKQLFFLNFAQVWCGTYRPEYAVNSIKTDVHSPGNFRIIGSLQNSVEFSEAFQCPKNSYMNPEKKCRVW
In words: Inhibitory activity against rabbit kidney neutral endopeptidase (NEP).

Test [4] deals with T1, Angiotensin-converting enzyme. In words: Inhibitory activity against rabbit lung angiotensin-converting enzyme (ACE).
Test [5] concerns the target T2, Leukotriene A-4 hydrolase. As to the kind of experiment: Inhibitory activity against LTA 4 hydrolase in aminopeptidase assay.
The target in test [6] is T2, Leukotriene A-4 hydrolase. In words: Inhibitory activity against LTA 4 hydrolase in epoxide hydrolase assay.

`O=C(C[C@@H](Cc1ccccc1)C(=O)N[C@@H](CC1CCCCC1)C(=O)O)NO`: the IC50 (commonly the concentration at which inhibition is half-maximal) in test [1] was 42 nM; in test [2], over 100 µM; in test [3], 10 nM; against Neprilysin, 104 µM.

As to `C[C@H](NC(=O)[C@@H](CC(=O)NO)CC1CCCCC1)C(=O)O`, the 50% inhibitory concentration (IC50) in test [1] was 10 nM; in test [2], over 100 µM; in test [3], 5 nM; against Neprilysin it was 2 µM.

For the compound `CSCC[C@@H](NC(=O)[C@@H](CC(=O)NO)Cc1ccccc1)C(=O)O`, the IC50 in test [1] was found to be 2 nM; in test [2], 20 µM; in test [3], 12 nM; on Neprilysin, 61 µM.

For the compound `C[C@H](NC(=O)[C@@H](CCS)CC1CCCCC1)C(=O)O`, the IC50 in test [3] is over 3000 nM; at Neprilysin, over 100 µM.

For the compound `C[C@H](NC(=O)[C@@H](CC(=O)O)Cc1ccccc1)C(=O)O`, the IC50 in test [1] is 140 nM; in test [2] it was over 100 µM; in test [3], 300 nM.

As for `C[C@H](NC(=O)[C@@H](CCC(=O)NO)Cc1ccccc1)C(=O)O`, the IC50 in test [2] was 20 µM; in test [3], over 10000 nM.

Take `C[C@@H](C(=O)O)N(C)C(=O)[C@@H](CC(=O)NO)Cc1ccccc1`: the IC50 in test [1] is 1 nM; in test [2] it was over 100 µM; in test [3], 3 nM; against Neprilysin, 3.4 µM.

`C[C@H](NC(=O)C(CS)Cc1ccccc1)C(=O)O` (stereo not given in full): the figures for the IC50 in test [1], in test [2] and in test [3] were over 10000 nM, 0.2 µM and over 3000 nM, respectively.

In the case of `O=C(C[C@@H](Cc1ccccc1)C(=O)N1CCCC[C@@H]1C(=O)O)NO`, the IC50 in test [1] was 2300 nM; in test [2], over 100 µM; in test [3] it was 1800 nM.

Take `C[C@H](NC(=O)[C@@H](CC(=O)NO)Cc1ccccc1)C(=O)O` [KELATORPHAN]: the IC50 in test [1] was 7 nM; in test [4], over 10 µM; in test [3], 5 nM; against Neprilysin, 0.046 µM. Besides, the Ki (usually the equilibrium dissociation constant of an inhibitor or competing ligand from its target) in test [5] came out at 10 nM; in test [6], 18 nM.

Turning to `C[C@H](CS)C(=O)N1CCC[C@H]1C(=O)O` [CAPTOPRIL], the values for the IC50 in test [1] and in test [3] were 2000 nM and 10000 nM, respectively.

With `O=C(C[C@@H](Cc1ccccc1)C(=O)N1CCC[C@H]1C(=O)O)NO`, the IC50 was 18 nM in test [1], 3 µM in test [4], 30 nM in test [3] and over 36 µM against Neprilysin.

`O=C(C[C@@H](Cc1ccccc1)C(=O)N1CCC[C@@H]1C(=O)O)NO`: the IC50 in test [1] was 15000 nM; in test [4] it was over 100 µM; in test [3], 20000 nM.

Regarding `O=C(C[C@@H](Cc1ccccc1)C(=O)N1CCCC[C@H]1C(=O)O)NO`, the IC50 came to 10 nM in test [1], 40 µM in test [2], 8 nM in test [3] and 17 µM against Neprilysin.

`O=C(C[C@@H](Cc1ccccc1)C(=O)N[C@@H](Cc1c[nH]c2ccccc12)C(=O)O)NO`: the IC50 in test [1] stood at 5 nM; in test [3], 10 nM.

Source of the values: ChEMBL document CHEMBL1128059, “Kelatorphan and related analogs: potent and selective inhibitors of leukotriene A4 hydrolase” (Bioorg Med Chem Lett, 1995).
